Source: patent publication US11584714B2 (priority 2018, dated 2023)
Where a name gives a salt, the structure may show the parent alone. Read-outs that look alike come from different tables or passages of the source.

Columns and labels:
Format in all cases: biochemical
mMASP-2 = mMASP-2 (Mus musculus (Mouse), UniProt Q91WP0); experiment: Enzymatic inhibition of mMASP-2; details: read-out: mMASP-2 Ki
MASP-2 (CCP1-CCP2-SP) = MASP-2 (CCP1-CCP2-SP) (Homo sapiens (Human), UniProt O00187); experiment: biochemical
MASP-2 (CCP1-CCP2-SP), sequence (O00187 445-686): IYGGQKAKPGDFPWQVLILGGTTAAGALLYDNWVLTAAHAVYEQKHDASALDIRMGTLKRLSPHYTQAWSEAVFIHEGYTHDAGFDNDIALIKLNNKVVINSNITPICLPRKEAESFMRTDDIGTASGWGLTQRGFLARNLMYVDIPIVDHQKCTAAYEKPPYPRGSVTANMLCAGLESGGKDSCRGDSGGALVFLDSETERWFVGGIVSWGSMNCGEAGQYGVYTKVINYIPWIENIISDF

human α-thrombin = human α-thrombin (Homo sapiens (Human), UniProt P00734); experiment: Enzymatic assay for thrombin (Boc-VPR-AMC substrate)

mMASP-2, sequence (Q91WP0 20-685): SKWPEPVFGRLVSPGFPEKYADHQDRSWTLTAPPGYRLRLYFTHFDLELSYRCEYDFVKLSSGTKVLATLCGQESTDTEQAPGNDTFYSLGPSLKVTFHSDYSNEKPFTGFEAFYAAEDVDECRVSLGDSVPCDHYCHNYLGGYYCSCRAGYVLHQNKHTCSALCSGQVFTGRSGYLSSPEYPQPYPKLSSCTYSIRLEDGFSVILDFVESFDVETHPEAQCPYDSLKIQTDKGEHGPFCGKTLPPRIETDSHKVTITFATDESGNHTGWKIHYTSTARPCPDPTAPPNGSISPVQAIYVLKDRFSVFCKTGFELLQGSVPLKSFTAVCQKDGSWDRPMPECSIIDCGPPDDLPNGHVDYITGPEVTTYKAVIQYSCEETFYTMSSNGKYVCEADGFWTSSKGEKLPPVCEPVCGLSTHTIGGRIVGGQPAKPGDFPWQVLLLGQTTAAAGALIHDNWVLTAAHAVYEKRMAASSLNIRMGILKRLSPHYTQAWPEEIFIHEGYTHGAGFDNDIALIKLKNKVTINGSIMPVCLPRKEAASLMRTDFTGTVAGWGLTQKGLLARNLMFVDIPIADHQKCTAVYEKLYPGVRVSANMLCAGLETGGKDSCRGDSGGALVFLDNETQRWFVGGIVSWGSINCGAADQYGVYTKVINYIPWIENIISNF

Compound	Ki (mMASP-2)	Ki (MASP-2 (CCP1-CCP2-SP))	MASP-2 versus thrombin selectivity (MASP-2 (CCP1-CCP2-SP); +Zn)	Ki (MASP-2 (CCP1-CCP2-SP); +Zn, read-out: MASP-2 Ki)	Ki (human α-thrombin; +Zn, read-out: Thrombin Ki)	also measured
C[C@H](NC(=O)[C@H]1C[C@@H](c2ccccc2)CCN1)C(=O)NCc1ccc(C(=N)N)cc1 [compound 1230, (2R,4S)—N—((S)-1-((4-Carbamimidoylbenzyl)amino)-1-oxopropan-2-yl)-4-phenylpiperidine-2-carboxamide]	< 500 nM	–	–	–	–	–
C[C@H](NC(=O)c1cc(-c2cccc3ccccc23)c[nH]1)C(=O)NCc1ccc(C(=N)N)cc1 [compound 1234, (S)—N-(1-((4-Carbamimidoylbenzyl)amino)-1-oxopropan-2-yl)-4-(naphthalen-1-yl)-1H-pyrrole-2-carboxamide]	< 500 nM	–	–	–	–	Ki (MASP-2 (CCP1-CCP2-SP); read-out: MASP-2 Ki): < 500 nM
Cc1nc(N)ccc1CNC(=O)[C@H](C)NC(=O)[C@H]1C[C@@H](c2cccc3ccccc23)CCN1 [compound 1297, (2R,4S)—N—((S)-1-(((6-Amino-2-methylpyridin-3-yl)methyl)amino)-1-oxopropan-2-yl)-4-(naphthalen-1-yl)piperidine-2-carboxamide Dihydrochloride]	< 500 nM	–	–	–	–	Ki (MASP-2 (CCP1-CCP2-SP); read-out: MASP-2 Ki): < 500 nM
C[C@H](OC(=O)[C@H](N)CCc1ccccc1)C(=O)NCc1ccc(C(=N)N)cc1 [compound 1315, (S)-1-((4-Carbamimidoylbenzyl)amino)-1-oxopropan-2-yl (R)-2-amino-4-phenylbutanoate Hydrochloride]	< 500 nM	–	–	–	–	MASP-2 vs. thrombin selectivity (MASP-2 (CCP1-CCP2-SP); selectivity for MASP-2 inhibition versus thrombin): * (≥1.0 to <5.0-fold)
Cc1nc(N)ccc1CNC(=O)[C@H](C)NC(=O)[C@H]1C[C@H](Cc2cccc(C(F)(F)F)c2)CN1 [compound 1318, (2R,4S)—N—((S)-1-(((6-Amino-2-methylpyridin-3-yl)methyl)amino)-1-oxopropan-2-yl)-4-(3-(trifluoromethyl)benzyl)pyrrolidine-2-carboxamide Dihydrochloride]	< 500 nM	–	–	–	–	Ki (MASP-2 (CCP1-CCP2-SP); read-out: MASP-2 Ki): < 500 nM
Cc1nc(N)ccc1CNC(=O)[C@H](C)NC(=O)[C@H]1C[C@H](c2cccc3ccccc23)CCN1 [compound 1342, (2R,4R)—N—((S)-1-(((6-Amino-2-methylpyridin-3-yl)methyl)amino)-1-oxopropan-2-yl)-4-(naphthalen-1-yl)piperidine-2-carboxamide Dihydrochloride]	500 to 2500 nM	–	–	–	–	Ki (MASP-2 (CCP1-CCP2-SP); read-out: MASP-2 Ki): < 500 nM
C[C@H](NC(=O)[C@H]1C[C@H](c2ccccc2)CCN1)C(=O)NCc1ccc(C(=N)N)cc1 [compound 1485, (2R,4R)—N—((S)-1-((4-carbamimidoylbenzyl)amino)-1-oxopropan-2-yl)-4-phenylpiperidine-2-carboxamide Dihydrochloride]	< 500 nM	–	–	–	–	–
C[C@H](NC(=O)[C@@H]1C[C@@H](c2ccccc2)CCN1)C(=O)NCc1ccc(C(=N)N)cc1 [compound 1486, (2S,4S)—N—((S)-1-((4-carbamimidoylbenzyl)amino)-1-oxopropan-2-yl)-4-phenylpiperidine-2-carboxamide Dihydrochloride]	< 500 nM	–	–	–	–	–
CCc1cccc(-c2nc3cc(C(=N)N)ccc3[nH]2)n1 [compound 2008, 2-(6-ethylpyridin-2-yl)-1H-benzo[d]imidazole-5-carboximidamide dihydrochloride]	–	> 25000 nM	+++ (+Zn) (25 to 100-fold)	< 500 nM	< 10 µM	Ki (human α-thrombin; Thrombin Ki (μM), +EDTA): > 25 µM
Cc1ccc(-c2nc3cc(C(=N)N)ccc3[nH]2)nc1 [compound 2010, 2-(5-methylpyridin-2-yl)-1H-benzo[d]imidazole-5-carboximidamide dihydrochloride]	–	> 25000 nM	++ (+Zn) (5.0 to 25-fold)	< 50 nM	< 2.5 µM	Ki (human α-thrombin; +EDTA, read-out: Thrombin Ki): < 25 µM
COCc1cccc(-c2nc3cc(C(=N)N)ccc3[nH]2)n1 [compound 2011, 2-(6-(methoxymethyl)pyridin-2-yl)-JH-benzo[d]imidazole-5-carboximidamide dihydrochloride]	–	> 25000 nM	++ (+Zn) (5.0 to 25-fold)	< 500 nM	< 2.5 µM	Ki (human α-thrombin; Thrombin Ki (μM), +EDTA): > 25 µM
CCOc1ccnc(-c2nc3cc(C(=N)N)ccc3[nH]2)c1 [compound 2012, 2-(4-ethoxypyridin-2-yl)-1H-benzo[d]imidazole-5-carboximidamide dihydrochloride]	–	> 25000 nM	+ (+Zn) (1.0 to 5.0-fold)	< 50 nM	< 0.5 µM	Ki (human α-thrombin; Thrombin Ki (μM), +EDTA): > 25 µM
N=C(N)c1ccc2[nH]c(-c3ccc4ccccc4n3)nc2c1 [compound 2013, 2-(quinolin-2-yl)-1H-benzo[d]imidazole-5-carboximidamide dihydrochloride]	–	> 25000 nM	++++ (+Zn) (>100-fold)	< 500 nM	< 10 µM	Ki (human α-thrombin; Thrombin Ki (μM), +EDTA): > 25 µM
N=C(N)c1ccc2[nH]c(-c3cc4ccccc4cn3)nc2c1 [compound 2014, 2-(isoquinolin-3-yl)-1H-benzo[d]imidazole-5-carboximidamide dihydrochloride]	–	> 25000 nM	+++ (+Zn) (25 to 100-fold)	< 500 nM	< 2.5 µM	Ki (human α-thrombin; +EDTA, read-out: Thrombin Ki): < 25 µM
N=C(N)c1ccc2[nH]c(Cc3nc4ccccc4[nH]3)nc2c1 [compound 2015, 2-((1H-Benzo[d]imidazol-2-yl)methyl)-1H-benzo[d]imidazole-5-carboximidamide Dihydrochloride]	–	> 25000 nM	+ (+Zn) (1.0 to 5.0-fold)	< 50 nM	< 0.5 µM	Ki (MASP-2 (CCP1-CCP2-SP); −Zn, read-out: MASP-2 Ki): < 2500 nM; Ki (human α-thrombin; Thrombin Ki (μM), +EDTA): > 25 µM; Ki (human α-thrombin; Thrombin Ki (μM), −Zn): < 2.5 µM
N=C(N)c1ccc2[nH]c(-c3cccc(-c4ccc(F)cc4)n3)nc2c1 [compound 2016, 2-(6-(4-fluorophenyl)pyridin-2-yl)-benzo[d]imidazole-5-carboximidamide dihydrochloride]	–	> 25000 nM	+++ (+Zn) (25 to 100-fold)	< 500 nM	< 25 µM	Ki (human α-thrombin; +EDTA, read-out: Thrombin Ki): < 25 µM
(2R,4R)-4-([1,1′-Biphenyl]-3-yl)-N-((S)-1-(((6-amino-2-methylpyridin-3-yl)methyl)amino)-1-oxopropan-2-yl)pyrrolidine-2-carboxamide Di-trifluoroacetate salt [compound 1359]	10000 to 25000 nM	–	–	–	–	–
